From ChEMBL document CHEMBL1131034, “Synthesis and pharmacological characterization of novel 6-fluorochroman derivatives as potential 5-HT1A receptor antagonists” (J Med Chem, 1998)

What was measured:
[1] = Binding affinity (Ki) ratio of D2 receptor of rat striatum and 5-HT1A receptor of rat hippocampus.; assay type: tissue-based
[2] = target: Serotonin 1a (5-HT1a) receptor/Adrenergic receptor alpha-1 (Rattus norvegicus) (UniProt P15823+P23944+P43140+P19327); assay: Selectivity for 5-HT1A receptor of rat hippocampus and alpha-1 adrenergic receptor of rat cortex.; assay type: tissue-based
[3] = target: T1, 5-hydroxytryptamine receptor 1A (Homo sapiens) (UniProt P08908); assay: Antagonist activity against CHO cells expressing the human 5-hydroxytryptamine 1A receptor in a forskolin stimulated adenylate cyclase (FSC) assay.; assay type: functional, cell-based
T1 sequence (whole entry): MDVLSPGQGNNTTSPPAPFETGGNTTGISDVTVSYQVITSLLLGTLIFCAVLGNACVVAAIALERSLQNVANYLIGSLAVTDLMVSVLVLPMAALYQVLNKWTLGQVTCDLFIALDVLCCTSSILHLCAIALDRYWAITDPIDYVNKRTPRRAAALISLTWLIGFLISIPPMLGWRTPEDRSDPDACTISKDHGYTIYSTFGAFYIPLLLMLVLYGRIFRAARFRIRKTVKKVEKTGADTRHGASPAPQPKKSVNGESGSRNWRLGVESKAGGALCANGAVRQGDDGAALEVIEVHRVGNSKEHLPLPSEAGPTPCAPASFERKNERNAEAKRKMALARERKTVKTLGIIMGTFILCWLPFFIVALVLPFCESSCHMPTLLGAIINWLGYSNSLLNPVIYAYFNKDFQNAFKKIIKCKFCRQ

[4] = target: T2, 5-hydroxytryptamine receptor 1A (Rattus norvegicus, UniProt P19327); assay: Binding affinity against 5-hydroxytryptamine 1A receptor on rat hippocampus using [3H]8-OH-DPAT as radioligand.; assay type: tissue-based
T2 sequence (P19327 whole entry): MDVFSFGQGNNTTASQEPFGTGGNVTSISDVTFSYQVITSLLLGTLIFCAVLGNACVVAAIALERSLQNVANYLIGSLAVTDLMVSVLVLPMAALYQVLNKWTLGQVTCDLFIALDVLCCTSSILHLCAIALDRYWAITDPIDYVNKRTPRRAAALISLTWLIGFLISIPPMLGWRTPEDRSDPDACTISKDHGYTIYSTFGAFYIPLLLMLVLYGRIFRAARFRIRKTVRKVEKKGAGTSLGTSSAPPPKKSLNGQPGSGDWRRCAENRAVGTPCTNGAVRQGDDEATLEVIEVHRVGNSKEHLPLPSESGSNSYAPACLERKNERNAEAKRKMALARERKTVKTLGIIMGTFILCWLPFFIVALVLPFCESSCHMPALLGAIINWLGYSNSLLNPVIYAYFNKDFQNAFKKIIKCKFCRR

[5] = target: T3, Adrenergic receptor alpha-1 (Rattus norvegicus, UniProt P15823+P23944+P43140); assay: Binding affinity against alpha-1 adrenergic receptor on rat cortex using [3H]-prazosin as radioligand.; assay type: tissue-based, Brain
T3 sequence (P15823 whole entry): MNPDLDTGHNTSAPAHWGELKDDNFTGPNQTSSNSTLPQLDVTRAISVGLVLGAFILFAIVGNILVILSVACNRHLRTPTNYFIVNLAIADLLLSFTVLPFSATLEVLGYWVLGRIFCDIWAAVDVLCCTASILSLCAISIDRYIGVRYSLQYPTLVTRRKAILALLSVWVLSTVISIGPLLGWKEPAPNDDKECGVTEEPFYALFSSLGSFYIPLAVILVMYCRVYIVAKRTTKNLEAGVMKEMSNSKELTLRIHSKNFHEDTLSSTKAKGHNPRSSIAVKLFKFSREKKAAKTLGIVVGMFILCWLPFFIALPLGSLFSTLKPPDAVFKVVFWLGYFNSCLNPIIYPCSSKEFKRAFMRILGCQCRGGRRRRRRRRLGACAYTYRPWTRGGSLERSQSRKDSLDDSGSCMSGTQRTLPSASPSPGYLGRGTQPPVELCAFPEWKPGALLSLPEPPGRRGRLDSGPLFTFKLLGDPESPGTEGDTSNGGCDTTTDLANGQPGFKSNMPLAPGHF
T3 sequence (P23944 whole entry): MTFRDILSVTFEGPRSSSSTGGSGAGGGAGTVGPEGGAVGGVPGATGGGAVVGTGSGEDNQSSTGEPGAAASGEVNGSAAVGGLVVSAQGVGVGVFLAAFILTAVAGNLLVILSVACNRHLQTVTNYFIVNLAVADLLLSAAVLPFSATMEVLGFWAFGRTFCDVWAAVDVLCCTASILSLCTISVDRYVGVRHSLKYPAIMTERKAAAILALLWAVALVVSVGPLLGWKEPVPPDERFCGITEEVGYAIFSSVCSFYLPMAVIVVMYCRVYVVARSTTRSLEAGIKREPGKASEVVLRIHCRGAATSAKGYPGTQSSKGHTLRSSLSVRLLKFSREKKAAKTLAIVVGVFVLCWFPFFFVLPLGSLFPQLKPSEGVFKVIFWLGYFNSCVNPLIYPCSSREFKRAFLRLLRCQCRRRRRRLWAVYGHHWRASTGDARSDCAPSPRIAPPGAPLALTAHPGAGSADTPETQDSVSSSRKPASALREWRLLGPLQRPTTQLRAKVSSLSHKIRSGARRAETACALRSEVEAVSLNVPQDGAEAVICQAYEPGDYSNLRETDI
T3 sequence (P43140 whole entry): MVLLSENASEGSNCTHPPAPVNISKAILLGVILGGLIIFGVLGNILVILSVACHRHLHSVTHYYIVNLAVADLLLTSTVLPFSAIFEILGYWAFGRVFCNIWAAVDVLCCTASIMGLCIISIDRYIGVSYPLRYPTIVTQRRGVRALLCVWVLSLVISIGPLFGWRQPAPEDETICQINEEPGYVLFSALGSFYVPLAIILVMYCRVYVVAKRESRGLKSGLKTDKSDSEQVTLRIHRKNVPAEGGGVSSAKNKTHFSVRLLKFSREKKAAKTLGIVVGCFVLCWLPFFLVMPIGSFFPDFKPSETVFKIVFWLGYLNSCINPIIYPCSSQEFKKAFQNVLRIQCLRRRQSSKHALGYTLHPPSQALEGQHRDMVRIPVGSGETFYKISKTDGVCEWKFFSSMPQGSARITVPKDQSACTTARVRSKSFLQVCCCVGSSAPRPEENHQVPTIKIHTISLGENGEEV

D(2) dopamine receptor = D(2) dopamine receptor (Rattus norvegicus, UniProt P61169); assay: Binding affinity against dopamine receptor D2 on rat striatum using [3H]spiperone as radioligand.; assay type: tissue-based
Chain of D(2) dopamine receptor (P61169 whole entry): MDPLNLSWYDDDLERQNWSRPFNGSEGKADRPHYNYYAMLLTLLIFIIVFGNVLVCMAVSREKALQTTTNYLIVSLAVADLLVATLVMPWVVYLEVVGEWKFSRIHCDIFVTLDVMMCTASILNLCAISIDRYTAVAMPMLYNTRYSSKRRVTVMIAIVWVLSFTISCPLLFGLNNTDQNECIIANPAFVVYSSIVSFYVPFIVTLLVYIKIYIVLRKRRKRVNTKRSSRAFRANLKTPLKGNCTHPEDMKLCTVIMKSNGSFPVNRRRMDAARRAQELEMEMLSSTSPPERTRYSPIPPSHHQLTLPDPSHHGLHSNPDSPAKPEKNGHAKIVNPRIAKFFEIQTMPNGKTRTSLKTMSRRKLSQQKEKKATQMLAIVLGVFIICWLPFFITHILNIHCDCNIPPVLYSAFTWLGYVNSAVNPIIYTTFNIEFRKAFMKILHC

Structure (SMILES)	Ratio [1]	Selectivity [2]	FSC recovery [3] [%]	Ki [4] [nM]	Ki [5] [nM]	Ki (D(2) dopamine receptor) [nM]
COc1ccc(CCCCNCCOc2cc(F)cc3c2OCC/C3=N/O)cc1	0.42	7.5	83	27.7	207	11.7
COc1ccc(CCCCNCCOc2cc(F)cc3c2OCCC3=O)c(C)c1C	–	2	17	77	152	–
COc1ccc(CCCCNCCOc2cc(F)cc3c2OCCC3O)cc1 (single isomer, unassigned; (+)) [listing 1 of 2 here]	0.23	35	109	–	–	–
COc1ccc(CCCCNCCOc2cc(F)cc3c2OCCC3O)cc1 (single isomer, unassigned; (+)) [listing 2 of 2 here]	–	–	–	2.1	73.3	0.482
COc1ccc(CCCCNCCOc2cc(F)cc3c2OC(C)CC3)cc1 (centres undefined)	1.2	15	53	0.27	4.07	0.312
O=C1CCOc2c(OCCNCCCCc3ccc(O)cc3)cc(F)cc21	0.42	2.2	26	55.8	120	23.3
COc1ccccc1CCCCNCCOc1cc(F)cc2c1OCCC2=O	0.99	3.2	44	24	75.6	23.7
COc1ccc(CCCNCCOc2cc(F)cc3c2OC(C)CC3)cc1 (centres undefined)	0.52	2.1	40	9.53	19.9	4.98
N#Cc1ccc(CCCCNCCOc2cc(F)cc3c2OCCC3=O)cc1	6.4	32	17	11	355	70.4
O=C1CCOc2c(OCCNCCCCc3ccc([N+](=O)[O-])cc3)cc(F)cc21	–	13	3	19.3	258	–
COc1ccc(CCNCCOc2cc(F)cc3c2OCCC3O)cc1 (centres undefined)	1.3	5.8	68	2.34	13.5	2.99
CSc1ccc(CCCCNCCOc2cc(F)cc3c2OCCC3=O)cc1	2.1	17	49	18.4	315	38.8
COc1ccc(CCCCNCCOc2cc(F)cc3c2OCCC3=O)c2ccccc12	0.23	0.29	-15	680	198	153
COc1ccc(CCCCCCNCCOc2cc(F)cc3c2OC(C)CC3)cc1 (centres undefined)	0.26	3.4	76	8.99	30.8	2.31
COc1ccc(CCCCNCCOc2cc(F)cc3c2OCCC3OC)cc1 (centres undefined)	0.5	9.6	111	18.3	175	9.07
COc1ccc(CCCCNCCOc2cc(F)cc3c2OC(C)(C)CC3)cc1	0.34	8.2	44	0.435	3.57	0.149
O=C1CCOc2c(OCCNCCCCc3ccccc3)cc(F)cc21	1.1	2.2	16	41.8	91.5	43.9
COc1ccc(CCCCNCCOc2cc(F)cc3c2OCCC3O)cc1 (stereo in doubt; 34)	1	15	108	–	–	–
COc1ccc(CCCCN(C)CCOc2cc(F)cc3c2OCCC3=O)cc1	–	26	10	52.7	1350	–
COc1ccc(CCCCNCCOc2cc(F)cc3c2OCCC3O)cc1 (stereo in doubt; (-)-34) [listing 1 of 2 here]	–	–	–	0.31	5.86	4.11
CCCOc1ccc(CCCCNCCOc2cc(F)cc3c2OCCC3=O)cc1	–	18	33	48.8	856	–
COc1ccc(CCCCNCCOc2cc(F)cc3c2OCCC3O)cc1 (stereo in doubt; (-)-34) [listing 2 of 2 here]	13	19	111	–	–	–
